Results on 12 compounds are retold here after paper PMC7684622, “The application of L‐glutaminase for the synthesis of the immunomodulatory γ‐D‐glutamyl‐L‐tryptophan and the kokumi‐imparting γ‐D‐glutamyl peptides” (Food Science & Nutrition, 2020).

Common to all, as to format: biochemical
For test [1], the system named is T1, L-glutaminase of Bacillus amyloliquefaciens.
T1 construct: gene ggt; commercial enzyme preparation (Amano Enzyme China); called L-Gln amidohydrolase EC 3.5.1.2 with gamma-glutamyl transpeptidase activity
Description: transpeptidation, gamma-D-Glu-L-Trp formed, by HPLC / UPLC-MS. As to conditions: gamma-glutamyl donor; fixed 25 mM L-Trp; apparent; read-out: Synthesis. The source says:
transpeptidation, gamma-D-Glu-L-Trp formed, by HPLC / UPLC-MS on L-glutaminase of Bacillus amyloliquefaciens

The test system is the same in test [2]. Description: transpeptidation, gamma-L-Glu-L-Trp formed, by HPLC / UPLC-MS. Conditions: gamma-glutamyl donor; fixed 25 mM L-Trp; apparent; read-out: Synthesis. An excerpt:
transpeptidation, gamma-L-Glu-L-Trp formed, by HPLC / UPLC-MS on L-glutaminase of Bacillus amyloliquefaciens

The test system is the same in test [3]. Description: transpeptidation, product by HPLC / UPLC-MS. Conditions: acceptor; fixed 25 mM D-Gln; apparent; read-out: Synthesis. The source says:
transpeptidation, product by HPLC / UPLC-MS on L-glutaminase of Bacillus amyloliquefaciens

For test [4] the test system is unchanged. Description: hydrolysis, HPLC / UPLC-MS. As to conditions: hydrolysis reaction; apparent. The source says:
hydrolysis, HPLC / UPLC-MS on L-glutaminase of Bacillus amyloliquefaciens

Consider `NC(=O)CC[C@@H](N)C(=O)O` [D-Gln], for which, in test [1], the Km was 5.53 ± 0.98 mM. Turning to `NC(=O)CC[C@H](N)C(=O)O` [L-Gln], the Km in test [2] is 0.98 ± 0.08 mM. As to `CSCC[C@H](N)C(=O)O` [L-Met], in test [3], the Km was 88.8 ± 6.12 mM. Same read-out and setting: the same measure for `N[C@@H](Cc1ccccc1)C(=O)O` [L-Phe]: 46.3 ± 2.32 mM. On the same count and under the same terms, the same measure for `N[C@@H](Cc1c[nH]c2ccccc12)C(=O)O` [L-Trp]: 32.5 ± 3.86 mM. Regarding `CC(C)[C@H](N)C(=O)O` [L-Val], the Km in test [3] came out at 76.6 ± 3.25 mM. With `CSCC[C@H](NC(=O)CC[C@@H](N)C(=O)O)C(=O)O` [γ-D-Glu-L-Met], the Km in test [4] worked out at 62.2 ± 4.61 mM. The same measure, in the same setting: the same measure for `N[C@H](CCC(=O)N[C@@H](Cc1ccccc1)C(=O)O)C(=O)O` [γ-D-Glu-L-Phe]: 52.8 ± 3.02 mM. `N[C@H](CCC(=O)N[C@@H](Cc1c[nH]c2ccccc12)C(=O)O)C(=O)O` [γ-D-Glu-L-Trp]: the Km in test [4] was found to be 36.7 ± 2.86 mM.

As to `CC(C)[C@H](NC(=O)CC[C@@H](N)C(=O)O)C(=O)O` [γ-D-Glu-L-Val], in test [4], the Km is 68.8 ± 5.25 mM. On the same count and under the same terms, the same measure for `N[C@@H](CCC(=O)N[C@@H](Cc1c[nH]c2ccccc12)C(=O)O)C(=O)O` [γ-L-Glu-L-Trp]: 15.7 ± 1.82 mM; for `CC(C)[C@H](NC(=O)CC[C@@H](NC(=O)CC[C@@H](N)C(=O)O)C(=O)O)C(=O)O` [γ-[D-Glu]2-L-Val]: 90.4 ± 6.25 mM.
